Values of other authors in PubChem BioAssay AID1259409 (Chemical Carcinogenesis Research Information System (CCRIS), 2018).
“And” between values parts separate entries of the source, which are not always exact repeats. Equal values may be shown once.

Tested on: rodent chemically induced tumor inhibition, incidence and multiplicity
Assay: CCRIS tumor inhibitor studies
Conditions: Route [Inhibitor]: ORAL, Species: RAT

| Structure (SMILES) | tumour outcome (control, treated, inhibition, significance) (Carcinogen: DIETHYLNITROSAMINE, 55-18-5, Dose [Inhibitor]: 0, 125 PPM IN DIET BEGINNING 1 WK POST CARCINOGEN DOSE (STUDY DURATION: 36 WK), Strain/Sex: F344/MALE, Target Tissue: Type of Lesion: LIVER: TUMOR, Dose [Carcinogen]: 200 MG/KG BW ONCE, Promoter: PHENOBARBITAL, 50-06-6) | tumour outcome (control, treated, inhibition, significance) (Carcinogen: N-METHYL-N'-NITRO-N-NITROSOGUANIDINE, 70-25-7, Dose [Inhibitor]: 0, 100 PPM IN DIET FOR FIRST 25 WK (STUDY DURATION: 55 WK), Strain/Sex: WISTAR/MALE, Target Tissue: Type of Lesion: DUODENUM: ADENOMA, ADENOCARCINOMA OR SARCOMA, Dose [Carcinogen]: 100 MG/L IN DRINKING WATER FOR FIRST 25 WK, Promoter: GLYOXAL, 107-22-2) | tumour outcome (control, treated, inhibition, significance) (Carcinogen: N-METHYL-N'-NITRO-N-NITROSOGUANIDINE, 70-25-7, Dose [Inhibitor]: 0, 100 PPM IN DIET FOR FIRST 25 WK (STUDY DURATION: 55 WK), Strain/Sex: WISTAR/MALE, Target Tissue: Type of Lesion: FORESTOMACH: PAPILLOMA, Dose [Carcinogen]: 100 MG/L IN DRINKING WATER FOR FIRST 25 WK, Promoter: GLYOXAL, 107-22-2) | tumour outcome (control, treated, inhibition, significance) (Carcinogen: N-METHYL-N'-NITRO-N-NITROSOGUANIDINE, 70-25-7, Dose [Inhibitor]: 0, 100 PPM IN DIET FOR FIRST 25 WK (STUDY DURATION: 55 WK), Strain/Sex: WISTAR/MALE, Target Tissue: Type of Lesion: GASTROINTESTINAL TRACT (UPPER): BENIGN OR MALIGNANT TUMOR, Dose [Carcinogen]: 100 MG/L IN DRINKING WATER FOR FIRST 25 WK, Promoter: GLYOXAL, 107-22-2) | tumour outcome (control, treated, inhibition, significance) (Carcinogen: N-METHYL-N'-NITRO-N-NITROSOGUANIDINE, 70-25-7, Dose [Inhibitor]: 0, 100 PPM IN DIET FOR FIRST 25 WK (STUDY DURATION: 55 WK), Strain/Sex: WISTAR/MALE, Target Tissue: Type of Lesion: GLANDULAR STOMACH: ADENOMA, ADENOCARCINOMA OR SARCOMA, Dose [Carcinogen]: 100 MG/L IN DRINKING WATER FOR FIRST 25 WK, Promoter: GLYOXAL, 107-22-2) | tumour outcome (control, treated, inhibition, significance) (Carcinogen: N-METHYL-N'-NITRO-N-NITROSOUGUANIDINE, 70-25-7, Dose [Inhibitor]: 0, 25 PPM IN DIET FOR THE DURATION OF THE STUDY (STUDY DURATION: 55 WK), Strain/Sex: WISTAR/MALE, Target Tissue: Type of Lesion: BILE DUCT: CHOLANGIOMA, Dose [Carcinogen]: 100 MG/L IN DRINKING WATER FOR FIRST 25 WK, Promoter: GLYOXAL, 107-22-2) | tumour outcome (control, treated, inhibition, significance) (Carcinogen: N-METHYL-N'-NITRO-N-NITROSOUGUANIDINE, 70-25-7, Dose [Inhibitor]: 0, 25 PPM IN DIET FOR THE DURATION OF THE STUDY (STUDY DURATION: 55 WK), Strain/Sex: WISTAR/MALE, Target Tissue: Type of Lesion: FORESTOMACH: PAPILLOMA, Dose [Carcinogen]: 100 MG/L IN DRINKING WATER FOR FIRST 25 WK, Promoter: GLYOXAL, 107-22-2) | tumour outcome (control, treated, inhibition, significance) (Carcinogen: N-METHYL-N'-NITRO-N-NITROSOUGUANIDINE, 70-25-7, Dose [Inhibitor]: 0, 25 PPM IN DIET FOR THE DURATION OF THE STUDY (STUDY DURATION: 55 WK), Strain/Sex: WISTAR/MALE, Target Tissue: Type of Lesion: GASTROINTESTINAL TRACT (UPPER): BENIGN OR MALIGNANT TUMOR, Dose [Carcinogen]: 100 MG/L IN DRINKING WATER FOR FIRST 25 WK, Promoter: GLYOXAL, 107-22-2) | tumour outcome (control, treated, inhibition, significance) (Carcinogen: N-METHYL-N'-NITRO-N-NITROSOUGUANIDINE, 70-25-7, Dose [Inhibitor]: 0, 25 PPM IN DIET FOR THE DURATION OF THE STUDY (STUDY DURATION: 55 WK), Strain/Sex: WISTAR/MALE, Target Tissue: Type of Lesion: GLANDULAR STOMACH: ADENOMA, ADENOCARCINOMA OR SARCOMA, Dose [Carcinogen]: 100 MG/L IN DRINKING WATER FOR FIRST 25 WK, Promoter: GLYOXAL, 107-22-2) | tumour outcome (control, treated, inhibition, significance) (Carcinogen: N-METHYL-N'-NITRO-N-NITROSOUGUANIDINE, 70-25-7, Dose [Inhibitor]: 0, 100 PPM IN DIET FOR FIRST 25 WK (STUDY DURATION: 55 WK), Strain/Sex: WISTAR/MALE, Target Tissue: Type of Lesion: BILE DUCT: CHOLANGIOMA, Dose [Carcinogen]: 100 MG/L IN DRINKING WATER FOR FIRST 25 WK, Promoter: GLYOXAL, 107-22-2) | tumour outcome (control, treated, inhibition, significance) (Carcinogen: N-METHYL-N'-NITRO-N-NITROSOUGUANIDINE, 70-25-7, Dose [Inhibitor]: 0, 100 PPM IN DIET FOR FIRST 25 WK (STUDY DURATION: 55 WK), Strain/Sex: WISTAR/MALE, Target Tissue: Type of Lesion: DUODENUM: ADENOMA, ADENOCARCINOMA OR SARCOMA, Dose [Carcinogen]: 100 MG/L IN DRINKING WATER FOR FIRST 25 WK, Promoter: GLYOXAL, 107-22-2) | tumour outcome (control, treated, inhibition, significance) (Carcinogen: N-METHYL-N'-NITRO-N-NITROSOUGUANIDINE, 70-25-7, Dose [Inhibitor]: 0, 100 PPM IN DIET FOR FIRST 25 WK (STUDY DURATION: 55 WK), Strain/Sex: WISTAR/MALE, Target Tissue: Type of Lesion: FORESTOMACH: PAPILLOMA, Dose [Carcinogen]: 100 MG/L IN DRINKING WATER FOR FIRST 25 WK, Promoter: GLYOXAL, 107-22-2) | tumour outcome (control, treated, inhibition, significance) (Carcinogen: N-METHYL-N'-NITRO-N-NITROSOUGUANIDINE, 70-25-7, Dose [Inhibitor]: 0, 100 PPM IN DIET FOR FIRST 25 WK (STUDY DURATION: 55 WK), Strain/Sex: WISTAR/MALE, Target Tissue: Type of Lesion: GASTROINTESTINAL TRACT (UPPER): BENIGN OR MALIGNANT TUMOR, Dose [Carcinogen]: 100 MG/L IN DRINKING WATER FOR FIRST 25 WK, Promoter: GLYOXAL, 107-22-2) | tumour outcome (control, treated, inhibition, significance) (Carcinogen: N-METHYL-N'-NITRO-N-NITROSOUGUANIDINE, 70-25-7, Dose [Inhibitor]: 0, 100 PPM IN DIET FOR FIRST 25 WK (STUDY DURATION: 55 WK), Strain/Sex: WISTAR/MALE, Target Tissue: Type of Lesion: GLANDULAR STOMACH: ADENOMA, ADENOCARCINOMA OR SARCOMA, Dose [Carcinogen]: 100 MG/L IN DRINKING WATER FOR FIRST 25 WK, Promoter: GLYOXAL, 107-22-2) | tumour outcome (control, treated, inhibition, significance) (Carcinogen: N-METHYL-N-BENZYLNITROSAMINE, 937-40-6, Dose [Inhibitor]: 0.32 (BASAL MOLYBDENUM LEVEL), 2 PPM (HIGH MOLYBDENUM LEVEL) IN DIET BEGINNING 4 WK PRIOR TO CARCINOGEN DOSE AND CONTINU, Strain/Sex: F344/MALE, Target Tissue: Type of Lesion: ESOPHAGUS: CARCINOMA, Dose [Carcinogen]: 2.5 MG/KG IN 0.2 ML OLIVE OIL 1/WK FOR 20 WK, Promoter: NONE USED) | tumour outcome (control, treated, inhibition, significance) (Carcinogen: N-METHYL-N-NITROSOUREA, 684-93-5, Dose [Inhibitor]: 20 PPM IN DRINKING WATER CONCURRENTLY WITH THE CARCINOGEN (STUDY DURATION: 56 WK), Strain/Sex: BD6/MALE, Target Tissue: Type of Lesion: INTESTINE: ADENOCARCINOMA, Dose [Carcinogen]: 25 MG/KG 2/WK FOR 15 WK, Promoter: NONE USED) |
| --- | --- | --- | --- | --- | --- | --- | --- | --- | --- | --- | --- | --- | --- | --- | --- | --- |
| Nc1nc(N)nc(-c2cc(Cl)ccc2Cl)n1 | 14/14 (100%), 0/15 (0%), 100%, not calculated | 6/12 (50%), 4/16 (25%), 50%, not significant | 3/12 (25%), 1/16 (6%), 76%, not significant | 11/12 (92%), 9/16 (56%), 39%, p<0.05 | 9/12 (75%), 6/16 (38%), 49%, p<0.05 | 1/12 (8%), 0/12 (0%), 100%, not significant | 3/12 (25%), 1/12 (8%), 68%, not significant | 11/12 (92%), 7/12 (58%), 37%, not significant | 9/12 (75%), 5/12 (42%), 44%, not significant | 1/12 (8%), 0/12 (0%), 100%, not significant and 1/12 (8%), 0/15 (0%), 100%, not significant | 6/12 (50%), 4/12 (33%), 34%, not significant and 6/12 (50%), 4/15 (20%), 60%, not significant | 3/12 (25%), 3/12 (25%), 0%, not significant and 3/12 (25%), 1/15 (7%), 72%, not significant | 11/12 (92%), 5/12 (42%), 54%, p<0.02 and 11/12 (92%), 6/15 (40%), 57%, p<0.01 | 9/12 (75%), 3/12 (25%), 67%, p<0.02 and 9/12 (75%), 5/15 (33%), 56%, p<0.02 | – | – |
| [Mo].[Na+].[Na+].[O-2].[O-2].[O-2].[O-2] | – | – | – | – | – | – | – | – | – | – | – | – | – | – | 30/41 (73%), 20/45 (44%), 40%, p<0.01 | 6/20 (30%), 1/14 (7%), 77%, p>0.05 |
